Laboratory results reported in patent US20250262167A1, “COMPOUNDS, TARGETS AND PATHWAYS FOR MACROPHAGE MODULATION” (Massachusetts Institute of Technology, priority 2020, published 2025).

Experiments:
[1] = tested on: luciferase-expressing human B lymphoma cells (GMB); experiment: Human B lymphoma (GMB-luc) model in NSG mice; type: in vivo, mouse
Protocol: NSG mice were grafted with 1×10^7 GMB-luc cells and dosed twice at 14 and 21 days later with 0.5 mg/kg Rituximab (Ritu) and/or 300 mg/kg thiostrepton (Thio). Tumor burden was monitored (FIG. 18A) and quantified (FIG. 18B) by imaging the luciferase activity in vivo (n=5˜6 mice per group). Data are shown as mean±s.e.m. At day 28 post tumor engraftment, bone marrow cells were analyzed by flow cytometry (FIG. 18C). Shown are representative F4/80 versus CD11b staining profiles gating on CD45^+ cells (top panel), Ly6C versus Ly6G staining profiles gating on F4/80^+CD11b^+ cells (bottom panel). MHCII histograms gating on macrophages from FIG. 18C. […] Data shown are mean±s.d. * P<0.05, ** P<0.01 and *** P<0.001, by T-test.
For the melanoma model, an inoculum of 1×10^6 B16F10 tumor cells was injected subcutaneously on the flank of 8- to 10-week-old male B6 mice in […] sterile PBS. Six days following tumor inoculation, mice were randomized into 4 treatment groups including control (PBS or DMSO), tumor-targeting antibody TA99, compound, compound plus TA99. TA99 was administered at […] per dose intraperitoneally (I.P.). The compound was administrated at the indicated dosage by either I.P. or paratumor injection subcutaneously (S.C.). All mice were dosed at day 6 and day 12 post tumor inoculation for a total of 2 treatments. Tumor size was measured as an area (longest dimension×perpendicular dimension) at day 6, day 12 and day 18 post tumor inoculation. Mice were euthanized for analysis at day 18 post tumor inoculation. For the lymphoma model, 1×10^7 GMB cells were injected through tail intravenously in 100 μL sterile PBS into 10- to 12-week-old male NSG mice. Mice were treated two weeks post tumor cell engraftment. Tumor-targeting antibody Rituxumab (InvivoGen) was administered at 10 mg/kg intraperitoneally. The compound was administrated I.P. at the indicated dosage. All mice were dosed at week 2 and week 3 post tumor injection for a total of 2 treatments. […]

hMDMs = experiment: RNA-seq transcriptional response of hMDMs (GSEA, GO enrichment); type: cell-based, human; settings: hMDMs, 2.5 μM, 24 hours
Protocol: Duplicate hMDM samples were treated with 2 M2-activating and 6 M1-activating compounds as well as IL-4 and IFNγ for 24 hrs. Gene expression levels were measured by RNA-seq separately. GSEA preranked analysis was performed based on the whole genome gene list ranked on gene expression changes using a gene set of 49 transcriptional modules in response to 29 stimuli in hMDMs. bosut.: bosutinib; alster.: alsterpaullone; mocet.: mocetinostat; thios.: thiostrepton; niclo.: niclosamide; chlor.: chlorhexidine; fenb.: fenbendazole; fluvo.: fluvoxamine. […] Duplicate hMDM samples were stimulated with each ligand and analyzed by RNA-seq separately.
DEGs were identified by edgeR at P<0.05 with at least 2 fold-change.
RNAs were extracted with RNeasy MiniElute kit (Qiagen), converted into cDNA and sequenced using Next-Generation Sequencing (Illumina). […] Differential expression analysis was performed using the program edgeR at P<0.05 with a 2 fold-change. The gene expression level across different samples was normalized and quantified using the function of cpm. Differentially expressed genes were annotated using online functional enrichment analysis tool DAVID (http://david.ncifcrf.gov/). Gene set enrichment analysis were performed with GSEA with FDR q-value<0.05.
Fresh hMDMs were treated with compounds at the EC for 24 hours, followed by RNA-seq.

[2] = tested on: bone marrow derived macrophages (BMDMs); experiment: Seahorse ECAR (glycolysis) in BMDMs; type: cell-based, mouse; settings: Pkm−/− BMDMs, 50 nM
Protocol: FIGS. 21A-21I show DPI stimulates glycolysis through GPR3 and β-arrestin2. FIGS. 21A-21B show DPI-stimulated glycolysis is independent of the NOX activity. […] The mean fluorescence intensity (MFI) of 2-NBDG in cells was measured by flow cytometry and normalized to DMSO controls of wildtype BMDMs. Data are presented as the mean±sd (n=3). […] ImKCs were transfected with siRNA specific for Gpr3 or a scramble siRNA as control. […] Data are presented as the mean±sd (n=4). […] Data are presented as the mean±sd (n=12). […] Abbr2^−/− ImKC were constructed by CRISPR-Cas9-mediated gene editing. […] Data are presented as the mean±sd (n=4). […]
Specific parameters for glycolytic capacity and glycolytic reserve were calculated and summarized based on two independent experiments. […]
FIGS. 29A-29B show comparison of DPI's effect on glycolysis in wild-type and Pkm^−/− BMDMs. […] ImKCs were treated with DMSO or DPI alone (500 nM) or DPI plus ERK1/2 inhibitor (SCH772984, […]) for 6 hrs and the enzymatic activities of PKM2 (c) and GAPDH (d) were measured by colorimetric assay kits (Biovision). […]
OCR and ECAR were measured in isolated tissues or cultured ImKCs using the Seahorse XFe Extracellular Flux Analyzer (Agilent). […] Glucose levels were determined using a glucose (GO) assay kit (Sigma). […] Lactate levels were determined using a lactate assay kit (Eton Bioscience). […]

Structure (SMILES) | tumor burden in the bone marrow ([1]; alone, 300 mg/kg, luciferase imaging) | tumor burden in the bone marrow, with rituximab ([1]; together with rituximab, luciferase imaging) | F4/80+CD11b+ macrophages with higher MHCII in bone marrow ([1]; vs vehicle or rituximab) | expression of M2 chemokine CCL24 (hMDMs) | expression of proinflammatory cytokines TNFα and IL-1β (hMDMs) | glycolysis, glycolytic capacity and glucose consumption [2]
C=C(NC(=O)C(=C)NC(=O)c1csc(C2=N[C@@H]3c4csc(n4)[C@H]4NC(=O)c5csc(n5)[C@H]([C@](C)(O)[C@@H](C)O)NC(=O)[C@H]5CSC(=N5)/C(=C/C)NC(=O)[C@H]([C@@H](C)O)NC(=O)c5csc(n5)[C@]3(CC2)NC(=O)[C@H](C)NC(=O)C(=C)NC(=O)[C@H](C)NC(=O)[C@H]([C@@H](C)CC)N[C@@H]2C=Cc3c([C@H](C)O)cc(nc3[C@H]2O)C(=O)O[C@@H]4C)n1)C(N)=O [Thiostrepton] | significantly reduced | significantly reduced | higher percentages | down-regulate | polarized to express | 
c1ccc2c(c1)[I+]c1ccccc1-2 [Diphenyleneiodonium chloride] |  |  |  |  |  | did not stimulate any increase
